Results from ChEMBL document CHEMBL5678818, “Discovery of potent SOS1 inhibitors that block RAS activation via disruption of the RAS-SOS1 interaction” (Proc Natl Acad Sci U S A, 2019).

What was measured:
[1] = test system: Tyrosine-protein kinase ABL1 (Homo sapiens), P00519 [Q252H]; assay: Inhibition of nonphosphorylated ABL1 Q252H mutant (unknown origin) assessed as residual activity at 1000 nM by KINOMEscan analysis relative to control
[2] = biological target: Ribosomal protein S6 kinase alpha-5 (Homo sapiens) (UniProt O75582); assay: Inhibition of N-terminal RPS6KA5 kinetic domain 1 (unknown origin) assessed as residual activity at 1000 nM by KINOMEscan analysis relative to control
[3] = biological target: Dual specificity protein kinase CLK3 (Homo sapiens) (UniProt P49761); assay: Inhibition of CLK3 (unknown origin) assessed as residual activity at 1000 nM by KINOMEscan analysis relative to control
[4] = biological target: T1, Phosphatidylinositol 5-phosphate 4-kinase type-2 gamma (Homo sapiens) (UniProt Q8TBX8); assay: Inhibition of PIP5K2C (unknown origin) assessed as residual activity at 1000 nM by KINOMEscan analysis relative to control
T1 sequence (whole entry): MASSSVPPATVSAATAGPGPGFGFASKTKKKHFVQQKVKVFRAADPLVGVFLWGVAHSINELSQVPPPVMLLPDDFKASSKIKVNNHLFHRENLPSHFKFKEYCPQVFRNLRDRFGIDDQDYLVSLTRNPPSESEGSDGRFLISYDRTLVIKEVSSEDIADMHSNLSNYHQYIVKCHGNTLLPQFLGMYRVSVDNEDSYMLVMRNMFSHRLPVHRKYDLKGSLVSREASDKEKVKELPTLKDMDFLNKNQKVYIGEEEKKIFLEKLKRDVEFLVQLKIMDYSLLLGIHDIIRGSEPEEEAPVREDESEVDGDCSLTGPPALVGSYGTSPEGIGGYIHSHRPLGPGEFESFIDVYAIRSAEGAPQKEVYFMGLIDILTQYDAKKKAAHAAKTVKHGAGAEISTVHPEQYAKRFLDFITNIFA

[5] = biological target: T2, Homeodomain-interacting protein kinase 4 (Homo sapiens) (UniProt Q8NE63); assay: Inhibition of HIPK4 (unknown origin) assessed as residual activity at 1000 nM by KINOMEscan analysis relative to control
T2 sequence (whole entry): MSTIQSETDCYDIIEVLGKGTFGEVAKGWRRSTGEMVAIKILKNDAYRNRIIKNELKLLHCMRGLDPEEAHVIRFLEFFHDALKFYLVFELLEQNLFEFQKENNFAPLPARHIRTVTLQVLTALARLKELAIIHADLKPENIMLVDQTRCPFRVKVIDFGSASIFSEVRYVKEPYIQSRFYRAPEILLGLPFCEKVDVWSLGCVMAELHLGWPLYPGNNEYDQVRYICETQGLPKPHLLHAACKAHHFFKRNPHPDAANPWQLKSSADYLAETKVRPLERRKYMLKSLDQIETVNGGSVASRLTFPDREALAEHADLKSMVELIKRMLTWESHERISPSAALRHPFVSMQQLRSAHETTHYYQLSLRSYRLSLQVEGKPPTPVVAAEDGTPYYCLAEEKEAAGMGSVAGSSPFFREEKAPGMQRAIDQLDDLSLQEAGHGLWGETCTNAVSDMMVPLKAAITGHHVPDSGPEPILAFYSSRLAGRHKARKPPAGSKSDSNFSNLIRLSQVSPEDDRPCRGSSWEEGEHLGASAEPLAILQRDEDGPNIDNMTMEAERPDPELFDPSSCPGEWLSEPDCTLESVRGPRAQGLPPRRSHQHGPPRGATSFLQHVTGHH

[6] = biological target: Myosin light chain kinase 2, skeletal/cardiac muscle (Homo sapiens) (UniProt Q9H1R3); assay: Inhibition of MYLK2 (unknown origin) assessed as residual activity at 1000 nM by KINOMEscan analysis relative to control
[7] = biological target: Homeodomain-interacting protein kinase 1 (Homo sapiens) (UniProt Q86Z02); assay: Inhibition of HIPK1 (unknown origin) assessed as residual activity at 1000 nM by KINOMEscan analysis relative to control
[8] = biological target: T3, Dual specificity mitogen-activated protein kinase kinase 4 (Homo sapiens) (UniProt P45985); assay: Inhibition of MEK4 (unknown origin) assessed as residual activity at 1000 nM by KINOMEscan analysis relative to control
T3 sequence (whole entry): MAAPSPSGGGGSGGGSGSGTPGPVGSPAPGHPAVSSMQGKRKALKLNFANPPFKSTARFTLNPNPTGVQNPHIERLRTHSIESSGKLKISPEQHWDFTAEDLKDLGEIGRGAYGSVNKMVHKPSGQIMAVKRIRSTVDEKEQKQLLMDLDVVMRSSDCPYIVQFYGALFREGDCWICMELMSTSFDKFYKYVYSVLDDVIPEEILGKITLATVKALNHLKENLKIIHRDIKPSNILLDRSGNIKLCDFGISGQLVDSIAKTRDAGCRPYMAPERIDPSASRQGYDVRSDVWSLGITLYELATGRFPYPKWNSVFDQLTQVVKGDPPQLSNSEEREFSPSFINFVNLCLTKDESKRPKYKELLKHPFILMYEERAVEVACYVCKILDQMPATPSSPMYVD

[9] = test system: Tyrosine-protein kinase ABL1 (Homo sapiens), P00519 [E255K]; assay: Inhibition of phosphorylated ABL1 E255K mutant (unknown origin) assessed as residual activity at 1000 nM by KINOMEscan analysis relative to control
[10] = biological target: Ribosomal protein S6 kinase alpha-2 (Homo sapiens) (UniProt Q15349); assay: Inhibition of N-terminal RSK3 […] domain 1 (unknown origin) assessed as residual activity at 1000 nM by KINOMEscan analysis relative to control
[11] = biological target: T4, Serine/threonine-protein kinase ICK (Homo sapiens) (UniProt Q9UPZ9); assay: Inhibition of ICK (unknown origin) assessed as residual activity at 1000 nM by KINOMEscan analysis relative to control
T4 sequence (whole entry): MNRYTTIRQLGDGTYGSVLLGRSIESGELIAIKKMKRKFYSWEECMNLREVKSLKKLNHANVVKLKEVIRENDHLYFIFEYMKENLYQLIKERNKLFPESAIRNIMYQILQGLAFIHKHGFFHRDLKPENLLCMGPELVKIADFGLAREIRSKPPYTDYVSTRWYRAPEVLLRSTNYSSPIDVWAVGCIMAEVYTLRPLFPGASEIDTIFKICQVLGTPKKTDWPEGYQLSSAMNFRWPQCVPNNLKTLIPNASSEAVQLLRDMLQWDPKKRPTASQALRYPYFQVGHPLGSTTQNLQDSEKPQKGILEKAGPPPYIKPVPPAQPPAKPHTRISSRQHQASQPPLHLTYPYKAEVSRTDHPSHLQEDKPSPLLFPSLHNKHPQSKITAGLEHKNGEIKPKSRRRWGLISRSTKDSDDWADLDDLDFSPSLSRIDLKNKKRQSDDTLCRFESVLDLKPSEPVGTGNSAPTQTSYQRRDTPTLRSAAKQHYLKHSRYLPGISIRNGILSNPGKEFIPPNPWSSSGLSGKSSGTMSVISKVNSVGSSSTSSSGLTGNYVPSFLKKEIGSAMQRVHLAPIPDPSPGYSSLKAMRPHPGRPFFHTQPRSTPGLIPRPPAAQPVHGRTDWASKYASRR

Homeodomain-interacting protein kinase 1 (Homo sapiens), sequence (Q86Z02 whole entry, looked up): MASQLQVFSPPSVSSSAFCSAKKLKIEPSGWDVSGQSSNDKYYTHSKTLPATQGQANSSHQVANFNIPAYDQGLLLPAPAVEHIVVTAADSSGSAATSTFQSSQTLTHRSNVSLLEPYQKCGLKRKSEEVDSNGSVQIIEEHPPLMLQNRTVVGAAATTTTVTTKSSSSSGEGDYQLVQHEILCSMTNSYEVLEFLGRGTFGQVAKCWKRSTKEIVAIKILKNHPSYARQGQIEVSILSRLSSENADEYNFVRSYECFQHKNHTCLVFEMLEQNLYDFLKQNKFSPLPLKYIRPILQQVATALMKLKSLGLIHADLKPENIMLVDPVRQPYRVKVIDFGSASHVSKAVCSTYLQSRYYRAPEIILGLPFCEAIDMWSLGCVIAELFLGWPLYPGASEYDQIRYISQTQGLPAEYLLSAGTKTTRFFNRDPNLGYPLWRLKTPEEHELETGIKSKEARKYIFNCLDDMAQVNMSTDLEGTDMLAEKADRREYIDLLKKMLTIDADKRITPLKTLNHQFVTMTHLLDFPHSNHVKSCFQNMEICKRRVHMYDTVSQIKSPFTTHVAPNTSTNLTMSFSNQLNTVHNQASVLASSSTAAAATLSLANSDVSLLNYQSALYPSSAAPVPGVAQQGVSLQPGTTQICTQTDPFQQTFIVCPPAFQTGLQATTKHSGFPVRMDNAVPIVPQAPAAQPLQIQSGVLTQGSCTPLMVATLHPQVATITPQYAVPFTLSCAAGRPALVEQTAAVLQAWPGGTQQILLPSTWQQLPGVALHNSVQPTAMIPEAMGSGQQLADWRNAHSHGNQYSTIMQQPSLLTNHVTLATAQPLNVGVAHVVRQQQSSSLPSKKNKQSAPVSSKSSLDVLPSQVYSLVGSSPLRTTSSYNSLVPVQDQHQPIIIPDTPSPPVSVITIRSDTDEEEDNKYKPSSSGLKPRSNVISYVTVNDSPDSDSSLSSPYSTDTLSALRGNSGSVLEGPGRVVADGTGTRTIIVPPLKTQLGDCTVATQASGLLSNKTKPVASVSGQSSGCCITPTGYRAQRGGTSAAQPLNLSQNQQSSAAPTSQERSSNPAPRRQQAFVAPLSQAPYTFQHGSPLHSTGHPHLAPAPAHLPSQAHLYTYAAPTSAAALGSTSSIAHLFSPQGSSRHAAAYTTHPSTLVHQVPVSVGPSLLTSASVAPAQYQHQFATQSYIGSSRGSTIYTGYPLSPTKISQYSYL
Ribosomal protein S6 kinase alpha-2 (Homo sapiens), sequence (Q15349 whole entry): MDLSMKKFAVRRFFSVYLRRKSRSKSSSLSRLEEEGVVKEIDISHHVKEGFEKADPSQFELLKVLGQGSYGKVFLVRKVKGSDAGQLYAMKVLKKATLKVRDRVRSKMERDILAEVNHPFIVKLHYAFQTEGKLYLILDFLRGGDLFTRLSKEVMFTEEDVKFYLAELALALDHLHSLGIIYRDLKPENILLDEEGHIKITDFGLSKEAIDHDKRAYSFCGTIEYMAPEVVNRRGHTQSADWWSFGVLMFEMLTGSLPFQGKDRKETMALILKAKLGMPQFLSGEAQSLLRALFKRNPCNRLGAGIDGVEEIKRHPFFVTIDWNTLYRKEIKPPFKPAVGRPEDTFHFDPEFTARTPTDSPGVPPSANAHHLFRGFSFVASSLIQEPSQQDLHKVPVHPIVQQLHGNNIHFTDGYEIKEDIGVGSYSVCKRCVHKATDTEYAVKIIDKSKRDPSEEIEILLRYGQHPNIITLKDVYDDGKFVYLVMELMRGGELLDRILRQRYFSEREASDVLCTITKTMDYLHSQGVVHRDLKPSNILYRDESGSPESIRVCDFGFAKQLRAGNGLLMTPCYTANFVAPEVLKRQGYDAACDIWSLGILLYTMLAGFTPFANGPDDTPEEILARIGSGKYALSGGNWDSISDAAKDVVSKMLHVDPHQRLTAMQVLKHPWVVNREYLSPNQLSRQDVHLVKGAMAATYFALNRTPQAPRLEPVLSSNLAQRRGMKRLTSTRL
Myosin light chain kinase 2, skeletal/cardiac muscle (Homo sapiens), sequence (Q9H1R3 whole entry): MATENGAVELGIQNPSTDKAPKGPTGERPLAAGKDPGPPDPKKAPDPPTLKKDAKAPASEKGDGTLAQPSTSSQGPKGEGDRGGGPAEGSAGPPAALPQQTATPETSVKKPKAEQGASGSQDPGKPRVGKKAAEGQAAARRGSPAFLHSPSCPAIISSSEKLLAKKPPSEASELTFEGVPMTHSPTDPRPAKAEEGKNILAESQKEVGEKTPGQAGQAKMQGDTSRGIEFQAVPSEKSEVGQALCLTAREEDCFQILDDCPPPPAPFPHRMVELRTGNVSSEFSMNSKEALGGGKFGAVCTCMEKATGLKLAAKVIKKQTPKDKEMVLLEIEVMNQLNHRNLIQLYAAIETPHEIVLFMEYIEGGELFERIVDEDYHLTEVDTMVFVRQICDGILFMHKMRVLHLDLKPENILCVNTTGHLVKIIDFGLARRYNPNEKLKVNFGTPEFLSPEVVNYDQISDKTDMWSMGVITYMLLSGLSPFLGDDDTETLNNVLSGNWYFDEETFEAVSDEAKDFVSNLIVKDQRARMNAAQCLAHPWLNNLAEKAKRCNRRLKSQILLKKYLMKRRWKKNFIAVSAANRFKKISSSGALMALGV
Ribosomal protein S6 kinase alpha-5 (Homo sapiens), sequence (O75582 whole entry, looked up, the tested form may be a part): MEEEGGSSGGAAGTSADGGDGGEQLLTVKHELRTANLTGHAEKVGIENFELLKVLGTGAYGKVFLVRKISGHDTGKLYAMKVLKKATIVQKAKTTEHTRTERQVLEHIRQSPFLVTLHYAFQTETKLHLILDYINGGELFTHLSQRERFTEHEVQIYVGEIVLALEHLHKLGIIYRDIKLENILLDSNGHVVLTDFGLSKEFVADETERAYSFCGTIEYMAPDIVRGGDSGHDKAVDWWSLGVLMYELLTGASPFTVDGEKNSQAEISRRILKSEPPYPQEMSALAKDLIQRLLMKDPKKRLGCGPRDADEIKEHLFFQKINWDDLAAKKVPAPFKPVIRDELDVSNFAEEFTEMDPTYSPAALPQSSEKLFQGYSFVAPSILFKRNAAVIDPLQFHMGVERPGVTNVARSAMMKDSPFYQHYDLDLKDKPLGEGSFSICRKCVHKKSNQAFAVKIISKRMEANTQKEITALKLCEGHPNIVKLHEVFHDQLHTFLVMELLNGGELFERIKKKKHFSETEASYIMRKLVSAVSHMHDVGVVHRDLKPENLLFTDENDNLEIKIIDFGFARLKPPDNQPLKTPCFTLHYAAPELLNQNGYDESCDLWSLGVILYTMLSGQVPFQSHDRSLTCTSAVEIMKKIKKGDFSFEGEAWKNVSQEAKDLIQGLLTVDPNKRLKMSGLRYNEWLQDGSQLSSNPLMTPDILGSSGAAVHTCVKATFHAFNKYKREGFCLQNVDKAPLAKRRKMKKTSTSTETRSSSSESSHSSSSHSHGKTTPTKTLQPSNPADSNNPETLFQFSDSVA
Dual specificity protein kinase CLK3 (Homo sapiens), sequence (P49761 whole entry, looked up): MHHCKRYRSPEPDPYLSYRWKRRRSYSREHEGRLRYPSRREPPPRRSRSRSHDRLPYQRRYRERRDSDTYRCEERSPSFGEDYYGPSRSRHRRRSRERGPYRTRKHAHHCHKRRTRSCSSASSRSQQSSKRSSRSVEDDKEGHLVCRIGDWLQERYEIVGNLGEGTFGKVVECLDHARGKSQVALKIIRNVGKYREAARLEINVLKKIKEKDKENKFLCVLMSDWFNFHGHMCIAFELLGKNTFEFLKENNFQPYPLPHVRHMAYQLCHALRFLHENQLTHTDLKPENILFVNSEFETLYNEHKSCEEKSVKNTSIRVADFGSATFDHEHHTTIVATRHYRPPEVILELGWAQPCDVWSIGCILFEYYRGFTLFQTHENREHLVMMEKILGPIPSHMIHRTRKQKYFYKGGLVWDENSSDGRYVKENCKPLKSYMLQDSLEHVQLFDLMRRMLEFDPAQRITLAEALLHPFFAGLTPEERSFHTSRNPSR

COc1cc2nc(C)nc(N[C@H](C)c3cccc(-c4cn[nH]c4)c3)c2cc1OC
Activity [1]: 45% | Activity [2]: 92% | Activity [3]: 81% | Activity [4]: 69% | Activity [5]: 80% | Activity [6]: 73% | Activity [7]: 67% | Activity [8]: 100% | Activity [9]: 65% | Activity [10]: 94% | Activity [11]: 78%

COc1cc2ncnc(N[C@H](C)c3cccc4ccccc34)c2cc1OC
Activity [1]: 100% | Activity [2]: 99% | Activity [3]: 100% | Activity [4]: 80% | Activity [5]: 100% | Activity [6]: 100% | Activity [7]: 89% | Activity [8]: 97% | Activity [9]: 89% | Activity [10]: 100% | Activity [11]: 94%
